Data from patent US20230365582A1, “NOVEL COMPOUNDS HAVING INHIBITORY ACTIVITY ON PROSTAGLANDIN E2 RECEPTOR AND USES THEREOF” (KANAPH THERAPEUTICS INC., priority 2020, published 2023).

Tests used:
[1] = target: T1, hEP4 (Homo sapiens, UniProt P35408); experiment: hEP4 cAMP assay; type: cell-based; conditions: HEK293 cells overexpressing hEP4; PGE2 agonist 20 nM; graded per Table 21; read-out: IC50 (nM) EP4 cAMP
T1 construct: expressed in transfected cells; host or cells: HEK293
Experimental: (§1) HEK293 cells overexpressing hEP4 were cultured in growth medium (GM: MEM (Gibco™, 11095080)/10% HI FBS (Gibco™, 10082147)/1% penicillin/streptomycin). Before the experiment, the growth medium was removed, and starvation medium (HBSS (Gibco™ 14025076)/10% GM) was added. Thereafter, the cells were incubated for 4 hours. HEK293 cells harboring hEP4 were detached from the culture dish with a non-enzymatic cell dissociation buffer (Gibco™, 15040066). The cells were resuspended in assay buffer (AB: HBSS, 0.1% BSA stabilizer, 0.5 mM IBMX, 5 mM HEPES).
(§2) 1,000 cells in 5 μL of AB were seeded per well in a 384 well plate (Corning®, 3570), and stock solutions of test compounds were prepared at a concentration of 1 mM in DMSO and serially diluted in DMSO to the concentration required for the inhibition dose response curve (test concentration range of 10 μM-0.001 nM). PGE2 (Sigma, P0409, stock solution: 100 μM) was used as an agonist at a final concentration of 20 nM corresponding to EC50-80. 2.5 μL of the diluted compound and 2.5 μL of PGE2 (20 nM final concentration) were transferred to the assay plate, and then the plate was incubated at room temperature for 18.5 minutes.
(§3) 5 μL of each donor (Eu-cAMP tracer) and acceptor (ULight-anti-cAMP) was added, and the plate was incubated in the dark for 1 hour at room temperature, and then a Varioskan LUX multimode microplate reader was used to obtain the results (excitation: 334 nm, emission: 615 and 665 nm). The resulting FRET fluorescence value (665 nm/615 nm*10000) was converted and then calculated as a percentage of cAMP compared to the DMSO control value. IC50 values and curves were generated with GraphPad Prism software using log (inhibitor) versus response-variable slope (4 parameters), and the median of multiple experiments was taken as the experiment result.

[2] = target: T2, hEP2 (Homo sapiens, UniProt P43116); experiment: hEP2 cAMP assay; type: cell-based; conditions: HEK293 cells overexpressing hEP2; PGE2 agonist 400 pM; graded per Table 21; read-out: IC50 (nM) EP2 cAMP
T2 construct: expressed in transfected cells; host or cells: HEK293
T2 sequence (P43116 whole entry): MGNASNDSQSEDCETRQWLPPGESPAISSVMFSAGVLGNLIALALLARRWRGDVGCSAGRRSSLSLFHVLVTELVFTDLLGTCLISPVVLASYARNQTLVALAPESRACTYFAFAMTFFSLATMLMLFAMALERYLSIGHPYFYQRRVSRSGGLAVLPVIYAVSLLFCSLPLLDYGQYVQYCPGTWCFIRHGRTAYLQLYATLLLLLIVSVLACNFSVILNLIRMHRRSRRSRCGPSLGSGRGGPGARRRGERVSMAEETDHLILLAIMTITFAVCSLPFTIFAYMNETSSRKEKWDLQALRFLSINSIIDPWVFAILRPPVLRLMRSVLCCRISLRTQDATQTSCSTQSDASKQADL
Experimental: as §1, with “overexpressing hEP2” for “overexpressing hEP4”, “(HBSS (Gibco™,” for “(HBSS (Gibco™”, “hours. The” for “hours.”, “harboring hEP2” for “harboring hEP4”
as §2, with “(Corning™,” for “(Corning®,”, “1” for “100”, “400 pM” for “20 nM”, “(400 pM” for “(20 nM”, “12” for “18.5”
as §3, with “relative” for “compared”, “slopes” for “slope”

T1 sequence (P35408 whole entry): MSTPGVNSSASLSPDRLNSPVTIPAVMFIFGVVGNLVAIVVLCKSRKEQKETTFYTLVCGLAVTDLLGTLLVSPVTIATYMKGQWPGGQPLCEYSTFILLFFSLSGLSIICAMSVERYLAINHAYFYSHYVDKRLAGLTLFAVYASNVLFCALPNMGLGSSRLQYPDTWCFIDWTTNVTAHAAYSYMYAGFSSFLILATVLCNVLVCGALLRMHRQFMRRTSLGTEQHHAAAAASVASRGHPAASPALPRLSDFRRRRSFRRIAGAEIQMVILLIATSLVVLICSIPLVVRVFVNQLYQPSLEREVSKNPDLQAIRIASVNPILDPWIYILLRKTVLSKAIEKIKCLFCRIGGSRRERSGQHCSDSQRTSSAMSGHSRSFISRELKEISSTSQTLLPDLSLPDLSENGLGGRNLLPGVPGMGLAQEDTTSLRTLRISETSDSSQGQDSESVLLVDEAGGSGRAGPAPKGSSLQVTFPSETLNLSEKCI

IC50 [1] [nM]	IC50 [2] [nM]	Structure (SMILES)
< 500	5000 to 10000	COc1ccc(-c2ccc(Cc3c(C)sc(C)c3C(=O)NC3CC4(C3)CC(C(=O)O)C4)cc2)cc1F (stereo not shown) [Example 40, 6-(4-((3′-fluoro-4′-methoxy-[1,1′-biphenyl]-4-yl)methyl)-2,5-dimethylthiophene-3-carboxamido)spiro[3.3]heptane-2-carboxylic acid]
< 500	500 to 5000	COc1cc(C#N)cc(-c2ccc(Cc3c(C)sc(C)c3C(=O)NC3CC4(C3)CC(C(=O)O)C4)cc2)c1 (stereo not shown) [Example 41, 6-(4-((3′-cyano-5′-methoxy-[1,1′-biphenyl]-4-yl)methyl)-2,5-dimethylthiophene-3-carboxamido)spiro[3.3]heptane-2-carboxylic acid]
500 to 5000	> 10000	Cc1sc(C)c(C(=O)NC2CC3(C2)CC(C(=O)O)C3)c1Cc1ccc(-c2ccc(OC(F)(F)F)cc2)cc1 (stereo not shown) [Example 42, 6-(2,5-dimethyl-4-((4′-(trifluoromethoxy)-[1,1′-biphenyl]-4-yl)methyl)thiophene-3-carboxamido)spiro[3.3]heptane-2-carboxylic acid]
< 500	500 to 5000	Cc1sc(C)c(C(=O)NC2CC3(C2)CC(C(=O)O)C3)c1Cc1ccc(-c2cccc(F)c2)cc1 (stereo not shown) [Example 43, 6-(4-((3′-fluoro-[1,1′-biphenyl]-4-yl)methyl)-2,5-dimethylthiophene-3-carboxamido)spiro[3.3]heptane-2-carboxylic acid]
< 500	500 to 5000	Cc1sc(C)c(C(=O)NC2CC3(C2)CC(C(=O)O)C3)c1Cc1ccc(-c2cccc(C(F)(F)F)c2)cc1 (stereo not shown) [Example 44, 6-(2,5-dimethyl-4-((3′-(trifluoromethyl)-[1,1′-biphenyl]-4-yl)methyl)thiophene-3-carboxamido)spiro[3.3]heptane-2-carboxylic acid]
< 500	500 to 5000	CCOc1cc(F)cc(-c2ccc(Cc3c(C)sc(C)c3C(=O)NC3CC4(C3)CC(C(=O)O)C4)cc2)c1 (stereo not shown) [Example 45, 6-(4-((3′-ethoxy-5′-fluoro-[1,1′-biphenyl]-4-yl)methyl)-2,5-dimethylthiophene-3-carboxamido)spiro[3.3]heptane-2-carboxylic acid]
500 to 5000	500 to 5000	Cc1sc(C)c(C(=O)NC2CC3(C2)CC(C(=O)O)C3)c1Cc1ccc(-c2cc(F)cc(OC(C)C)c2)cc1 (stereo not shown) [Example 46, 6-(4-((3′-fluoro-5′-isopropoxy-[1,1′-biphenyl]-4-yl)methyl)-2,5-dimethylthiophene-3-carboxamido)spiro[3.3]heptane-2-carboxylic acid]
500 to 5000	> 10000	COc1ccc(F)c(-c2ccc(Cc3c(C)sc(C)c3C(=O)NC3CC4(C3)CC(C(=O)O)C4)cc2)c1 (stereo not shown) [Example 47, 6-(4-((2′-fluoro-5′-methoxy-[1,1′-biphenyl]-4-yl)methyl)-2,5-dimethylthiophene-3-carboxamido)spiro[3.3]heptane-2-carboxylic acid]
< 500	> 10000	COc1ccc(F)cc1-c1ccc(Cc2c(C)sc(C)c2C(=O)NC2CC3(C2)CC(C(=O)O)C3)cc1 (stereo not shown) [Example 48, 6-(4-((5′-fluoro-2′-methoxy-[1,1′-biphenyl]-4-yl)methyl)-2,5-dimethylthiophene-3-carboxamido)spiro[3.3]heptane-2-carboxylic acid]
> 10000	> 10000	Cc1sc(C)c(C(=O)NC2CC3(C2)CC(C(=O)O)C3)c1Cc1ccc(-c2ccccc2F)cc1 (stereo not shown) [Example 49, 6-(4-((2′-fluoro-[1,1′-biphenyl]-4-yl)methyl)-2,5-dimethylthiophene-3-carboxamido)spiro[3.3]heptane-2-carboxylic acid]
< 500	> 10000	COc1cc(-c2ccc(Cc3c(C)sc(C)c3C(=O)NC3CC4(C3)CC(C(=O)O)C4)cc2)ccn1 (stereo not shown) [Example 50, 6-(4-(4-(2-methoxypyridin-4-yl)benzyl)-2,5-dimethylthiophene-3-carboxamido)spiro[3.3]heptane-2-carboxylic acid]
< 500	500 to 5000	COc1cc(-c2ccc(Cc3c(C)sc(C)c3C(=O)NC3CC4(C3)CC(C(=O)O)C4)cc2)cc(C(F)(F)F)c1 (stereo not shown) [Example 51, 6-(4-((3′-methoxy-5′-(trifluoromethyl)-[1,1′-biphenyl]-4-yl)methyl)-2,5-dimethylthiophene-3-carboxamido)spiro[3.3]heptane-2-carboxylic acid]
< 500	5000 to 10000	Cc1sc(C)c(C(=O)NC2CC3(C2)CC(C(=O)O)C3)c1Cc1ccc(-c2cc(F)cc(F)c2)cc1 (stereo not shown) [Example 52, 6-(4-((3′,5′-difluoro-[1,1′-biphenyl]-4-yl)methyl)-2,5-dimethylthiophene-3-carboxamido)spiro[3.3]heptane-2-carboxylic acid]
< 500	500 to 5000	COc1cc(OC)cc(-c2ccc(Cc3c(C)sc(C)c3C(=O)NC3CC4(C3)CC(C(=O)O)C4)cc2)c1 (stereo not shown) [Example 53, 6-(4-((3′,5′-dimethoxy-[1,1′-biphenyl]-4-yl)methyl)-2,5-dimethylthiophene-3-carboxamido)spiro[3.3]heptane-2-carboxylic acid]
< 500	500 to 5000	Cc1sc(C)c(C(=O)NC2CC3(C2)CC(C(=O)O)C3)c1Cc1ccc(-c2cc(N)cc(F)c2)cc1 (stereo not shown) [Example 54, 6-(4-((3′-amino-5′-fluoro-[1,1′-biphenyl]-4-yl)methyl)-2,5-dimethylthiophene-3-carboxamido)spiro[3.3]heptane-2-carboxylic acid]
< 500	500 to 5000	CSc1cc(F)cc(-c2ccc(Cc3c(C)sc(C)c3C(=O)NC3CC4(C3)CC(C(=O)O)C4)cc2)c1 (stereo not shown) [Example 55, 6-(4-((3′-fluoro-5′-(methylthio)-[1,1′-biphenyl]-4-yl)methyl)-2,5-dimethylthiophene-3-carboxamido)spiro[3.3]heptane-2-carboxylic acid]
5000 to 10000	> 10000	Cc1sc(C)c(C(=O)NC2CC3(C2)CC(C(=O)O)C3)c1Cc1ccc(-c2cc(F)cc(S(C)(=O)=O)c2)cc1 (stereo not shown) [Example 56, 6-(4-((3′-fluoro-5′-(methylsulfonyl)-[1,1′-biphenyl]-4-yl)methyl)-2,5-dimethylthiophene-3-carboxamido)spiro[3.3]heptane-2-carboxylic acid]
< 500	500 to 5000	Cc1sc(C)c(C(=O)NC2CC3(C2)CC(C(=O)O)C3)c1Cc1ccc(-c2cc(F)cc(C(N)=O)c2)cc1 (stereo not shown) [Example 57, 6-(4-((3′-carbamoyl-5′-fluoro-[1,1′-biphenyl]-4-yl)methyl)-2,5-dimethylthiophene-3-carboxamido)spiro[3.3]heptane-2-carboxylic acid]
< 500	500 to 5000	COc1cc(C(N)=O)cc(-c2ccc(Cc3c(C)sc(C)c3C(=O)NC3CC4(C3)CC(C(=O)O)C4)cc2)c1 (stereo not shown) [Example 58, 6-(4-((3′-carbamoyl-5′-methoxy-[1,1′-biphenyl]-4-yl)methyl)-2,5-dimethylthiophene-3-carboxamido)spiro[3.3]heptane-2-carboxylic acid]

Structure (SMILES)	IC50 [1] [nM]	IC50 [2] [nM]
COc1cc(CNC(=O)OC(C)(C)C)cc(-c2ccc(Cc3c(C)sc(C)c3C(=O)NC3CC4(C3)CC(C(=O)O)C4)cc2)c1 (stereo not shown) [Example 59, 6-(4-((3′-(((tert-butoxycarbonyl)amino)methyl)-5′-methoxy-[1,1′-biphenyl]-4-yl)methyl)-2,5-dimethylthiophene-3-carboxamido)spiro[3.3]heptane-2-carboxylic acid]	500 to 5000	> 10000
